Laboratory results: paper PMC6749418, “SAR by Space: Enriching Hit Sets from the Chemical Space” (Molecules, 2019)
Read-outs that look alike come from different tables or passages of the source.

Legend:
BRD4 = conditions: cited from earlier work
BRD4 (BD1+BD2) = target: T1, BRD4 (BD1+BD2) (Homo sapiens, UniProt O60885); assay: BRD4 (BD1+BD2) TR-FRET assay, IC50 measurement; type: biochemical; conditions: average from three independent experiments
T1 construct: BRD4 (BD1+BD2) TR-FRET assay kit from BPS Bioscience; purchased BPS Bioscience
Protocol: Dose-response curves were built for these compounds, and for 5 of them, IC50 values were determined in TR-FRET assay as an average from three independent experiments (Table 1). Comparing the resulting hit molecules with the corresponding initial queries, one can see considerable structural differences. […] The relatively high FTrees similarity explains why they were not missed in the REAL Space search: The molecules still have very similar pharmacophoric properties in a similar arrangement. […] This is exemplary shown in Figure 7 for compound 20 and its respective query molecule 15. The shift of the nitrogen atom to the β position of the pyridine ring, as well as the different linker length, led to a completely flipped binding mode. It is also important to stress that the starting points of this study which led to the hits (compounds 19–22) had no significant activity against BRD4 in the functional (TR-FRET) assay; they were identified only in the binding assay (TSA).
All TR-FRET assays and IC50 measurements were performed using BRD4 (BD1+BD2) TR-FRET assay kit from BPS Bioscience (www.bpsbioscience.com) following the standard procedure.

bromodomain 1 of BRD4 = test system: T2, bromodomain 1 of BRD4; assay: Thermal shift assay (TSA) with recombinant, truncated, His-tagged bromodomain 1 of BRD4; type: binding; conditions: 1% DMSO, 4 μM protein; for ΔTm (°C) at 10 μM: compound at 10 μM; for ΔTm (°C) at 20 μM: compound at 20 μM; for ΔTm (°C) at 40 μM: compound at 40 μM
T2 construct: made in house
Protocol: The compounds were synthesized according to the standard protocols for typical parallel synthesis transformations, including amide/sulfonamide coupling, reductive amination, urea synthesis, arylation/alkylation, etc. The synthesis was completed in a three-week period and all the 32 compounds could actually be synthesized. The products obtained were subjected to thermal shift assay (TSA) using recombinant, truncated, His-tagged bromodomain 1 of BRD4 [28] at 40, 20, and 10 μM (Figure 4). The hit selection criteria followed those described in our previous publication:|ΔTm| ≥ |ΔTm,av| + 3|σ(ΔTm)|(1) |ΔTm| ≥ 2|σ(Tm,DMSO)|(2) where ΔTm—thermal shift caused by the compound; ΔTm,av—mean thermal shift value within the plate; σ(ΔTm)—standard deviation of the thermal shift values within the plate; σ(Tm,DMSO)—standard deviation of the melting temperature values obtained for the control samples.
All tested compounds were obtained from Enamine Ltd. (Kyiv, Ukraine). Stock solutions of the tested compounds were prepared in 100% DMSO and were stored at −20 °C until use. The bromodomain 1 of BRD4 was expressed using pNIC28-Bsa4 plasmid vector with an insert representing domain 1 of BRD4 (44–168 AA, sequence entry O60885.1 in UniProtKB Database), N-terminus His6-tag and 16-amino acid linker.
All thermal shift assay (TSA) experiments with BRD4 protein were performed using ViiA™7 real-time PCR System equipped with 384-well heat block (Applied Biosystems, Waltham, MA, USA). General TSA methodology was adopted from the literature and experimentally modified in order to optimize conditions for measuring BRD4 melting temperature shifts upon interaction with small molecules. The optimal buffer composition for the TSA procedure was determined as described previously. Buffer consisting of 50 mM Phosphate-Na, 100 mM NaCl, pH = 7.5 was selected for BRD4 screening in this study. Purified BRD4 protein was pre-mixed with SYPRO Orange dye (Thermo Fischer Scientific, Cat. S6650, 5000x stock, Waltham, MA, USA) to prepare a master mix at 4 μM protein and 6× dye concentrations. Tested compounds were added to the protein-dye master mix at 40, 20, or 10 μM at 1% final DMSO concentration and incubated at 4 °C for 1 h in MicroAmp® optical 384-well reaction plates (ThermoFisher, Cat. 4309849, Waltham, MA, USA) sealed with optical sealing film (ThermalSeal RT2, Excel Scientific, Cat. TS-RT2, Victorville, CA, USA). The volumes of all reaction mixtures were 10 µL ([…]). The reaction plates were then kept at ambient temperature (22–24 °C) for an additional 15 min to ensure protein-compound interactions. Thermal scanning was performed by raising the temperature to 40 °C at 1.6 °C/min without signal detection followed by 40 °C to 90 °C temperature ramp at 0.05 °C/s with constant fluorescence intensity reading at 1-sec intervals using EX470/EM623 nm filter set.
Primary screening of the whole test set of 49 compounds was carried out in singletons. The raw data of dye fluorescence intensity change upon protein melt were exported using the ViiA7 RUO software (Applied Biosystems/Thermo Fischer Scientific). Further data visualization, curve fitting, melting temperature calculations on the raw fluorescence data were performed using custom-made Microsoft Excel scripts. The peak of the first derivative for the fluorescence curve was used to define melting temperature (Tm). Averaged Tm values for the control wells containing only the protein, dye and 1% DMSO were used as a reference point to determine melting temperature shifts (ΔTm).

[1] = investigational BRD4 inhibitors, Figure 1

Compound	IC50 (BRD4; [1]) [µM]	IC50 (BRD4 (BD1+BD2)) [µM]	ΔTm (°C) at 10 μM (bromodomain 1 of BRD4) [°C]	ΔTm (°C) at 20 μM (bromodomain 1 of BRD4) [°C]	ΔTm (°C) at 40 μM (bromodomain 1 of BRD4) [°C]	IC50 (BRD4; known BRD4 inhibitors, Figure 6) [µM]	inhibition at 10 μM (BRD4; 10 μM, known BRD4 inhibitors, Figure 6)
COc1nnc2ccc(N3CCC(c4ccc(OCCN5CCN(C)C(=O)[C@H]5C)cc4)CC3)nn12 [AZD5153]	0.005						
CC1(C)C(=O)Nc2ccc(C(=O)Nc3cc(Cl)c(O)cc3F)cc21 [C00002]		10.7	0.31 ± 0.05	0.39 ± 0.08	0.71 ± 0.01		
CC1CC(=O)N(C)c2ccc(NC(=O)NCc3nc(N(C)C)no3)cc21 (stereo not shown) [C00004]		26.4	0.30 ± 0.10	0.72 ± 0.41	1.52 ± 0.59		
CC(C)(C)c1nnc2ccc(NCC(C)(C)c3cccnc3)nn12 [C00006]		44.6	0.34 ± 0.13	0.98 ± 0.22	1.33 ± 0.17		
CC(C)(CNc1ccc2nnc(C(F)(F)F)n2n1)c1cccnc1 [C00007]		68.2	0.34 ± 0.19	0.78 ± 0.14	1.56 ± 0.05		
CCC1Oc2cc(C(C)NC(=O)Cc3c(C)nc4[nH][nH]c(=O)c4c3C)ccc2NC1=O (stereo not shown) [C00009]		141	0.29 ± 0.01	0.44 ± 0.06	0.53 ± 0.25		
Cc1noc2c1-c1ccccc1C(c1ccc(Cl)cc1)=N[C@H]2CC(N)=O [CPI-0610]	0.018						
O=C1Nc2ccc(NS(=O)(=O)C3CCCCC3)cc2C12CCC2 [compound 31]						< 0.15	
O=C1CCc2cc(NC(=O)Nc3ccc(C(F)(F)F)cc3)ccc2N1 [compound 32]							up to 92%
CCS(=O)(=O)Nc1ccc(Oc2ccc(F)cc2F)c(-c2cn(C)c(=O)c3[nH]ccc23)c1 [mivebresib, Mivebresib]	0.001 to 0.002						
